PubChem BioAssay AID270 (DTP/NCI, 2004)
Where “and” joins values, the source holds several entries; their conditions need not be identical. Equal entries are not always repeated. Records with an inconclusive call do not appear.

Tested on: BDF1 mice, s.c. Lewis lung carcinoma, T/C %
Assay: NCI In Vivo Anticancer Drug Screen. Data for tumor model Lewis Lung Carcinoma (subcutaneous) in B6D2F1 (BDF1) mice
Method in brief: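 Readout: survival or tumor size, expressed as treated (T) over vehicle control (C). Transplantable tumor implanted in mice; compound given to the treated group.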

## Cc1ccc(N2CCN(CCCN3CCN(c4ccccc4Cl)CC3)CC2)cc1
endpoint: mean tumor weight, dose: 22.5 mg/kg/injection, schedule: Q01DX011 (ip), vehicle: carboxymethylcellulose (CMC), higher = larger tumour
  T/C: 108 % of control
endpoint: mean tumor weight, dose: 45.0 mg/kg/injection, schedule: Q01DX011 (ip), vehicle: carboxymethylcellulose (CMC), higher = larger tumour
  T/C: 45 % of control
endpoint: mean tumor weight, dose: 90.0 mg/kg/injection, schedule: Q01DX011 (ip), vehicle: carboxymethylcellulose (CMC), higher = larger tumour
  T/C: 38 % of control

## NC(=S)c1cn(C2OC(CO)C(O)C2O)c2ncnc(N)c12 (centres undefined)
endpoint: median survival time, dose: 0.31 mg/kg/injection, schedule: Q01DX009 (ip), vehicle: saline with Tween-80, higher = longer survival
  T/C: 111 % of control
endpoint: median survival time, dose: 0.62 mg/kg/injection, schedule: Q01DX009 (ip), vehicle: saline with Tween-80, higher = longer survival
  T/C: 88 % of control
endpoint: median survival time, dose: 2.5 mg/kg/injection, schedule: Q01DX009 (ip), vehicle: saline with Tween-80, higher = longer survival
  T/C: 94 % of control and 101 % of control
endpoint: median survival time, dose: 5.0 mg/kg/injection, schedule: Q01DX009 (ip), vehicle: saline with Tween-80, higher = longer survival
  T/C: 101 % of control

## CC(=O)OC(C)(C)/C=C/C(=O)[C@](C)(O)[C@H]1[C@H](O)C[C@@]2(C)[C@@H]3CC=C4[C@@H](C=C(O)C(=O)C4(C)C)[C@]3(C)C(=O)C[C@]12C
endpoint: mean tumor weight, dose: 0.4 mg/kg/injection, schedule: Q01DX011 (ip), vehicle: carboxymethylcellulose (CMC), higher = larger tumour
  T/C: 59 % of control
endpoint: mean tumor weight, dose: 0.8 mg/kg/injection, schedule: Q01DX011 (ip), vehicle: carboxymethylcellulose (CMC), higher = larger tumour
  T/C: 78 % of control
endpoint: mean tumor weight, dose: 1.6 mg/kg/injection, schedule: Q01DX011 (ip), vehicle: carboxymethylcellulose (CMC), higher = larger tumour
  T/C: 26 % of control
endpoint: mean tumor weight, dose: 3.2 mg/kg/injection, schedule: Q01DX011 (ip), vehicle: carboxymethylcellulose (CMC), higher = larger tumour
  T/C: 27 % of control
endpoint: mean tumor weight, dose: 3.2 mg/kg/injection, schedule: Q01DX011 (ip), vehicle: saline, higher = larger tumour
  T/C: 58 % of control
endpoint: mean tumor weight, dose: 6.4 mg/kg/injection, schedule: Q01DX011 (ip), vehicle: saline, higher = larger tumour
  T/C: 33 % of control
endpoint: mean tumor weight, dose: 12.8 mg/kg/injection, schedule: Q01DX011 (ip), vehicle: saline, higher = larger tumour
  T/C: 52 % of control

## CN(Cc1cnc2nc(N)nc(N)c2n1)c1ccc(C(=O)N[C@@H](CCC(=O)O)C(=O)O)cc1
endpoint: mean tumor weight, dose: 0.5 mg/kg/injection, schedule: Q01DX011 (ip), vehicle: alkali diluted with saline, higher = larger tumour
  T/C: 91 % of control
endpoint: mean tumor weight, dose: 0.5 mg/kg/injection, schedule: Q01DX011 (ip), vehicle: carboxymethylcellulose (CMC), higher = larger tumour
  T/C: 97 % of control
endpoint: mean tumor weight, dose: 0.75 mg/kg/injection, schedule: Q01DX011 (ip), vehicle: alkali diluted with saline, higher = larger tumour
  T/C: 111 % of control
endpoint: mean tumor weight, dose: 1.0 mg/kg/injection, schedule: Q01DX011 (ip), vehicle: alkali diluted with saline, higher = larger tumour
  T/C: 83 % of control
endpoint: mean tumor weight, dose: 1.0 mg/kg/injection, schedule: Q01DX011 (ip), vehicle: carboxymethylcellulose (CMC), higher = larger tumour
  T/C: 91 % of control
endpoint: mean tumor weight, dose: 1.5 mg/kg/injection, schedule: Q01DX011 (ip), vehicle: alkali diluted with saline, higher = larger tumour
  T/C: 93 % of control
endpoint: mean tumor weight, dose: 2.0 mg/kg/injection, schedule: Q01DX011 (ip), vehicle: alkali diluted with saline, higher = larger tumour
  T/C: 72 % of control
endpoint: mean tumor weight, dose: 2.0 mg/kg/injection, schedule: Q01DX011 (ip), vehicle: carboxymethylcellulose (CMC), higher = larger tumour
  T/C: 90 % of control
endpoint: mean tumor weight, dose: 4.0 mg/kg/injection, schedule: Q01DX011 (ip), vehicle: carboxymethylcellulose (CMC), higher = larger tumour
  T/C: 25 % of control
endpoint: median survival time, dose: 0.5 mg/kg/injection, schedule: Q01DX009 (ip), vehicle: Klucel (hydroxypropylcellulose) (HPC), higher = longer survival
  T/C: 107 % of control
endpoint: median survival time, dose: 0.5 mg/kg/injection, schedule: Q01DX009 (ip), vehicle: saline with Tween-80, higher = longer survival
  T/C: 89 % of control and 100 % of control
endpoint: median survival time, dose: 1.0 mg/kg/injection, schedule: Q01DX009 (ip), vehicle: Klucel (hydroxypropylcellulose) (HPC), higher = longer survival
  T/C: 112 % of control
endpoint: median survival time, dose: 1.0 mg/kg/injection, schedule: Q01DX009 (ip), vehicle: saline with Tween-80, higher = longer survival
  T/C: 93 % of control
endpoint: median survival time, dose: 1.0 mg/kg/injection, schedule: Q01DX009 (ip), vehicle: saline, higher = longer survival
  T/C: 100 % of control
endpoint: median survival time, dose: 2.0 mg/kg/injection, schedule: Q01DX009 (ip), vehicle: saline, higher = longer survival
  T/C: 102 % of control
endpoint: median survival time, dose: 4.0 mg/kg/injection, schedule: Q01DX009 (ip), vehicle: Klucel (hydroxypropylcellulose) (HPC), higher = longer survival
  T/C: 121 % of control
endpoint: median tumor weight (est.), dose: 0.5 mg/kg/injection, schedule: Q01DX009 (ip), vehicle: saline with Tween-80, higher = larger tumour
  T/C: 95 % of control
endpoint: median tumor weight (est.), dose: 1.0 mg/kg/injection, schedule: Q01DX009 (ip), vehicle: saline with Tween-80, higher = larger tumour
  T/C: 86 % of control
endpoint: median tumor weight (est.), dose: 1.4 mg/kg/injection, schedule: Q01DX011 (ip), vehicle: sodium bicarbonate, higher = larger tumour
  T/C: 99 % of control
endpoint: median tumor weight (est.), dose: 2.1 mg/kg/injection, schedule: Q01DX011 (ip), vehicle: sodium bicarbonate, higher = larger tumour
  T/C: 74 % of control
